Experimental data as given in patent US20080166323A1, “Activators of Hexosamine Biosynthesis as Inhibitors of Injury Induced by Ischemia or Hermorrhagic Shock” (UAB RESEARCH FOUNDATION, priority 2004, published 2008).
Where a name gives a salt, the structure may show the parent alone.

Legend:
perfused hearts = test: calcium paradox in perfused hearts (Langendorff); parameters: species or system rat
Experimental: The effect of short-term hyperglycemia (2-5 days) on the calcium paradox was explored. The protocol (a 30-minute stabilization after hanging the heart on a Langendorff apparatus, a Ca^2+-free buffer for 10 min, a buffer containing 1.25 mM Ca^2+ buffer for 15 min) was initially applied to perfused hearts from control rats. When calcium was removed from the perfusate, the heart gradually ceased beating (FIG. 2A), although no protein loss from the heart was detected (FIG. 3C). […] The decrease in left ventricular […] pressure (LVDP) and an elevation in end diastolic pressure (EDP), as well as protein loss and blanching signaled the transition to a “stone heart” (Zimmerman, Cardiovasc Res (2000) 45(1):119-121) in hearts from all control animals examined.
Azaserine (AZA), the inhibitor of GFAT and HBP flux (Marshall, et al., J Biol Chem (1991) 266(8):4706-4712), negated the effects of hyperglycemia, restoring sensitivity to the paradox in 3 of 7 hearts (FIG. 2B). […] This decreased somewhat the protection seen with hyperglycemia, but made the reversal seen with azaserine more pronounced (FIGS. 2B and 3).
To confirm the involvement of the HBP in the protection due to hyperglycemia, a complementary series of experiments at a final Ca^2+ concentration of 1.25 mM were performed.
An independent mechanism of increasing metabolites in the HBP is to provide the heart with free fatty acids (Hawkins, et al., J Clin Invest (1997) 99(9):2173-2182). This occurs because of the “glucose-sparing” effect, a rapid block on the entry of glucose into the glycolytic pathway because of an inhibition of phosphofructokinase. […] In addition, SKF96365 (also known as 1-[β-[3-(4-methoxyphenyl)propoxy]-4-methoxyphenethyl]-1H-imidazole, HCl; available from Calbiochem, San Diego, Calif.) as an independent means of blocking the channels responsible for CCE was utilized (Putney, Capacitative Calcium Entry (1997) Austin: Landes Biomedical). This too was at least partially effective in 4 of 6 animals (FIG. 4).

isolated rat heart = conditions: administered prior to ischemia or just prior to reperfusion; cited from earlier work
isolated cardiomyocyte = conditions: cited from earlier work
[1] = system: animal models of ischemia/reperfusion; conditions: in vivo; cited from earlier work
hemorrhagic shock = conditions: in vivo; cited from earlier work
human = conditions: in vivo; cited from earlier work

[N-]=[N+]=CC(=O)OC[C@H](N)C(=O)O [Azaserine]
hearts in which sensitivity to the calcium paradox was restored (effects of hyperglycemia negated) (perfused hearts; hearts from STZ hyperglycemic animals treated with azaserine): 3 of 7

NC(=O)CC[C@H](N)C(=O)O [glutamine]
protection in cardiac ischemia (isolated rat heart): remarkable protection
protection in isolated cardiomyocyte model (isolated cardiomyocyte): protective

CN(N=O)C(=O)N[C@H]1C(O)O[C@H](CO)[C@@H](O)[C@@H]1O (mixture of isomers) [streptozotocin]
hearts demonstrating almost complete protection in the calcium paradox (perfused hearts; hearts from animals made hyperglycemic by STZ treatment (2-5 days), 10 min Ca2+-free, 1.25 mM Ca2+ readdition): 7 of 7

COc1ccc(CCCOC(Cn2ccnc2)c2ccc(OC)cc2)cc1 (stereo not drawn) [SKF96365, 1-[β-[3-(4-methoxyphenyl)propoxy]-4-methoxyphenethyl]-1H-imidazole, HCl]
animals in which treatment was at least partially effective in the calcium paradox (perfused hearts; final Ca2+ 1.25 mM): 4 of 6

O=C(COP(=O)(O)O)[C@@H](O)[C@H](O)[C@H](O)COP(=O)(O)O [FBP, fructose-1,6-bisphosphate]
protection in animal models of ischemia/reperfusion [1]: protective
protection in hemorrhagic shock (hemorrhagic shock): protective
outcomes in human studies (human): improved outcomes
